Where a name gives a salt, the structure may show the parent alone.

In experiment [1] the target is T1, S1P1 (Homo sapiens, UniProt P21453). Put plainly: Method B: Receptor [35S] GTPγS SPA Binding Assay, membranes from S1P1 transfected CHO cells. The format is biochemical. The arrangement: expressed in transfected cells; host or cells: S1P1/CHO cells. The note with it: Method B SPA; S1P1 transfected CHO cell membranes; NC = a satisfactory dose response curve was not obtained. The protocol:
Membranes prepared from S1P1 or S1P3 transfected CHO cells (2 μg protein) were incubated in 96-well white plates (CORNING® 3693) with test compounds diluted in DMSO, in 50 μl of reaction mixture containing 7.5 μl WGA-PVT beads (20 mg/ml), and 5 μM GDP, 20 mM HEPES pH 7.4, 100 mM NaCl, 1 mM EDTA, 5 mM MgCl2, 10 μg/ml saponin, 0.1% BSA, and 1 μM leupeptin. The assay was initiated with the addition of 25 μl of 0.2 nM [^35S]-GTPγS (1250 Ci/mmol; NEN) in assay buffer. After 90 min incubation at room temperature, spin the plate at 1000 rpm for 5 min. The bound radionuclides were measured at TOPCOUNT®, expressed as % response relative to S1P (1 μM) activation. Data was analyzed using the four parameter logistic equation in Excel. The four parameters in the equation, Y=A+((B−A)/(1+((EC50/X)^D))), are described as following: A is the Y value (agonist activity) at the bottom plateau; B is the Y value at the top plateau; EC50 is the X value (agonist concentration) when the response is halfway between bottom and top; D is Hill coefficient. Curves were not generated for compounds having Ymax values were below 50%.
(§1) Compounds of the present invention and Comparative Compound A were tested in the Receptor [^35S] GTPγS Binding Assays (Method A) and Receptor [35S] In some instances, the value is an average of multiple experiments where N is the number of experiments conducted that provided satisfactory dose response curves. When more than one batch of an example was tested, the value presented is from a batch which allowed a comparison of GTPγS S1P1 and GTPγS S1P3 in which the most number of experiments were performed. Preferably, the same batch was examined in Method A and Method B. Data was not averaged across different batches of an example compound.
On the technique in general: Binding of GTPγS marks nucleotide exchange on a G protein.

For experiment [2], the target named is S1P3 (Homo sapiens, UniProt Q99500). Nature of the experiment: Method A: Receptor [35S] GTPγS Binding Assay, membranes from EDG3-Ga15-bla HEK293T cells. The format is biochemical. The arrangement: expressed in transfected cells; host or cells: EDG3-Ga15-bla HEK293T cells. The note with it: EDG3-Ga15-bla HEK293T cell membranes. The protocol:
(§2) Compounds were loaded in a 384 Falcon v-bottom plate (0.5 μl/well in a 3-fold dilution). Membranes prepared from S1P1/CHO cells or EDG3-Ga15-bla HEK293T cells were added to the compound plate (40 μl/well, final protein […]) with MULTIDROP®. [^35S]GTP (1250 Ci/mmol, Perkin Elmer) was diluted in assay buffer: 20 mM HEPES, pH7.5, 10 mM MgCl2, 150 mM NaCl, 1 mM EGTA, 1 mM DTT, 10 μM GDP, 0.1% fatty acid free BSA, and 10 mg/ml Saponin to 0.4 nM. 40 μl of the [^35S] GTP solution was added to the compound plate with a final concentration of 0.2 nM. The reaction was kept at room temperature for 45 min. At the end of incubation, all the mixtures in the compound plate were transferred to a 384 well FB filter plates via GPCR robot system. The filter plate was washed with water 4 times by using the modified manifold Embla plate washer and dried at 60° C. for 45 min. 30 μl of MicroScint 20 scintillation fluid was added to each well for counting at Packard TOPCOUNT®. EC50 is defined as the agonist concentration that corresponds to 50% of the Ymax (maximal response) obtained for each individual compound tested.
as §1

Experiment [3] deals with T1, S1P1. Nature of the experiment: Method A: Receptor [35S] GTPγS Binding Assay, membranes from S1P1/CHO cells. The format is biochemical. Set-up: expressed in transfected cells; host or cells: S1P1/CHO cells. The note with it: for EC50: Method A, S1P1/CHO cell membranes; for GTPγS S1P3/S1P1 (Method A): ratio of GTPγS S1P3 EC50 to GTPγS S1P1 EC50, Method A. The protocol:
as §2, §1

The target in experiment [4] is T1, S1P1. Nature of the experiment: S1P1 Binding Assay (33P-S1P ligand competition, membranes from CHO cells). The arrangement: expressed in transfected cells; host or cells: CHO cells. The note with it: membranes of CHO cells expressing human S1P1; 0.03 nM 33P-S1P; 60 min room temperature. The protocol: Membranes were prepared from CHO cells expressing human S1P1. Cells were dissociated in buffer containing 20 mM HEPES, pH 7.5, 50 mM NaCl, 2 mM EDTA and Protease Inhibitor cocktail (Roche), and disrupted on ice using the Polytron homogenizer. The homogenate was centrifuged at 20,000 rpm (48,000 g) and the supernatant was discarded. The membrane pellets were resuspended in buffer containing 50 mM HEPES, pH 7.5, 100 mM NaCl, 1 mM MgCl2, 2 mM EDTA and stored in aliquots at −80° C. after protein concentration determination.
Membranes (2 μg/well) and 0.03 nM final concentration of ^33P-S1P ligand (1 mCi/ml, American Radiolabeled Chemicals) were added to the compound plates. Binding was performed for 60 min at room temperature, terminated by collecting the membranes onto GF/B filter plates, and radioactivity was measured by TOPCOUNT®. The competition data of the test compounds over a range of concentrations was plotted as percentage inhibition of radioligand specific binding. The IC50 is defined as the concentration of competing ligand needed to reduce specific binding by 50%.
Compounds of the present invention and Comparative Compound A were tested in the S1P1 binding assay described hereinabove and the results rounded to two digits, shown in Table A were obtained. In some instances, the value is an average of multiple experiments where N is the number of experiments conducted that provided satisfactory dose response curves. When more than one batch of an example was tested, the value presented is from the batch which allowed a comparison of GTPγS S1P1 and GTPγS S1P3 in Method A (Data shown in Table B). Data was not averaged across different batches of an example compound.

Sequence of S1P3 (Q99500 whole entry): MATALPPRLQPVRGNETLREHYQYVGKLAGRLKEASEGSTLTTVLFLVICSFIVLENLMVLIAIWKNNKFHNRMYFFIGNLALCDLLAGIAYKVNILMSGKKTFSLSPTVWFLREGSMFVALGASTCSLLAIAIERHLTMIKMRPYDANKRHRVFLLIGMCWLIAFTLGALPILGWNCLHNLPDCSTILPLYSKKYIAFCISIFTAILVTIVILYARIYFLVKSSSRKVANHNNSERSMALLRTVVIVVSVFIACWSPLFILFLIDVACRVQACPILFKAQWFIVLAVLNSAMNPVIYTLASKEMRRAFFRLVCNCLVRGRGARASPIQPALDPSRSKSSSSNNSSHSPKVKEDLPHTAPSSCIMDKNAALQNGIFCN
T1 sequence (P21453 whole entry): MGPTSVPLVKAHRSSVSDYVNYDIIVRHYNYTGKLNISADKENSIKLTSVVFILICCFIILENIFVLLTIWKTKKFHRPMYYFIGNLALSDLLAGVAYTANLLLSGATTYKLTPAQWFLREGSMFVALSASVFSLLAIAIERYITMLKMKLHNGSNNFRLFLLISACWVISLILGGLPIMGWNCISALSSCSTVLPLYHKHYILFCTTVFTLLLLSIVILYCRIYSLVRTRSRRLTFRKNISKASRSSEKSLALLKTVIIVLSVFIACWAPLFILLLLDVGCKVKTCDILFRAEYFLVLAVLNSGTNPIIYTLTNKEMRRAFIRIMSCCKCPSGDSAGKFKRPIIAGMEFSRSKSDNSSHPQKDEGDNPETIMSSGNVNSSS

As for `CCCCc1c(-c2nc(-c3ccc(CN4CC(C(=O)O)C4)cc3)no2)noc1-c1ccccc1` [Example 3, 1-(4-(5-(4-Butyl-5-phenylisoxazol-3-yl)-1,2,4-oxadiazol-3-yl)benzyl)-azetidine-3-carboxylic acid], the half-maximal effective concentration (EC50) (as a rule, the concentration needed to bring the measured effect to its halfway point) is 0.16 nM in experiment [1], 330 nM in experiment [2] and 0.26 nM in experiment [3]. Moreover, in experiment [3], the “GTPγS S1P3/S1P1 (Method A)” value is 1,300. Also, the 50% inhibitory concentration (IC50) (usually the concentration that inhibits the measured activity by half) in experiment [4] was 0.065 nM.

With `CC(C)Cc1c(-c2nc(-c3ccc(CN4CC(C(=O)O)C4)cc3)no2)noc1-c1ccccc1` [Example 4, 1-(4-(5-(4-Isobutyl-5-phenylisoxazol-3-yl)-1,2,4-oxadiazol-3-yl)benzyl)-azetidine-3-carboxylic acid], the results for the EC50 in experiment [1], in experiment [2] and in experiment [3] were 0.58 nM, 470 nM and 0.7 nM, respectively. Besides, in experiment [3], the “GTPγS S1P3/S1P1 (Method A)” value is 670. The compound also showed an IC50 in experiment [4] of 0.17 nM.

As to `CCc1c(-c2nc(-c3ccc(CN4CC(C(=O)O)C4)c(Br)c3)no2)noc1-c1ccccc1` [Example 5, 1-(2-Bromo-4-(5-(4-ethyl-5-phenylisoxazol-3-yl)-1,2,4-oxadiazol-3-yl)benzyl)azetidine-3-carboxylic acid], in experiment [2], the response was half-maximal at 1700 nM (EC50). In experiment [3], the EC50 turned out to be 5.3 nM and the “GTPγS S1P3/S1P1 (Method A)” value is given as 320. The compound also came in with a 50% inhibitory concentration (IC50) in experiment [4] of 0.14 nM.

Compound `O=C(O)C1CN(Cc2ccc(-c3noc(-c4noc(-c5ccccc5)c4CCC(F)(F)F)n3)cc2)C1` [Example 8, 1-(4-(5-(5-Phenyl-4-(3,3,3-trifluoropropyl)isoxazol-3-yl)-1,2,4-oxadiazol-3-yl)benzyl)azetidine-3-carboxylic acid, 2,2,2-trifluoroacetic acid salt] displayed a 50% effective concentration (EC50) in experiment [2] of 520 nM. In experiment [3], the 50% effective concentration (EC50) was found to be 3.7 nM and the “GTPγS S1P3/S1P1 (Method A)” value stood at 140. The IC50 in experiment [4] is 0.09 nM.

In the case of `COC(=O)c1c(-c2ccccc2)noc1-c1nc(-c2ccc(CN3CC(C(=O)O)C3)cc2)no1` [Example 13, 1-(4-(5-(4-(Methoxycarbonyl)-3-phenylisoxazol-5-yl)-1,2,4-oxadiazol-3-yl)benzyl)azetidine-3-carboxylic acid, 2,2,2-trifluoroacetic acid salt], in experiment [2], the concentration for a half-maximal effect (EC50) stood at 1100 nM. For the same compound, in experiment [3], the EC50 turned out to be 1.9 nM and the “GTPγS S1P3/S1P1 (Method A)” value is reported as 578. This compound displayed an IC50 in experiment [4] of 0.094 nM.

In turn, `O=C(NCC(F)(F)F)c1c(-c2ccccc2)noc1-c1nc(-c2ccc(CN3CC(C(=O)O)C3)cc2)no1` [Example 15, 1-(4-(5-(3-Phenyl-4-(2,2,2-trifluoroethylcarbamoyl)isoxazol-5-yl)-1,2,4-oxadiazol-3-yl)benzyl)azetidine-3-carboxylic acid, 2,2,2-trifluoroacetic acid salt] gave a concentration giving a half-maximal response (EC50) in experiment [2] of 5100 nM. Also, in experiment [3], the midpoint of the response, the EC50, lay at 29 nM and the “GTPγS S1P3/S1P1 (Method A)” value came out at 175. In experiment [4], this compound registered a concentration for half-maximal inhibition (IC50) of 6.5 nM.

In turn, `O=C(O)c1c(-c2ccccc2)noc1-c1nc(-c2ccc(CN3CC(C(=O)O)C3)cc2)no1` [Example 16, 5-(3-(4-((3-Carboxyazetidin-1-yl)methyl)phenyl)-1,2,4-oxadiazol-5-yl)-3-phenylisoxazole-4-carboxylic acid] had an EC50 in experiment [2] of 2050 nM. In experiment [3], the EC50 worked out at 112 nM and the “GTPγS S1P3/S1P1 (Method A)” value came to 18. Besides, in experiment [4], the IC50 was 40 nM.

As for `CC(C)Cc1onc(-c2nc(-c3ccc(CN4CC(C(=O)O)C4)cc3)no2)c1C(F)(F)F` [Example 20, 1-(4-(5-(5-Isobutyl-4-(trifluoromethyl)isoxazol-3-yl)-1,2,4-oxadiazol-3-yl)benzyl)-azetidine-3-carboxylic acid], the values for the EC50 in experiment [2] and in experiment [3] were 2200 nM and 0.56 nM, respectively. In addition, the “GTPγS S1P3/S1P1 (Method A)” value in experiment [3] is 3,900. The concentration for half-maximal inhibition (IC50) in experiment [4] stood at 0.15 nM.

For `O=C(O)C1CN(Cc2ccc(-c3noc(-c4onc(-c5ccccc5)c4C(F)(F)F)n3)cc2F)C1` [Example 21, 1-(2-Fluoro-4-(5-(3-phenyl-4-(trifluoromethyl)isoxazol-5-yl)-1,2,4-oxadiazol-3-yl)benzyl)azetidine-3-carboxylic acid], the 50% effective concentration (EC50) in experiment [2] came out at 1100 nM. In experiment [3], the EC50 came out at 0.32 nM and the “GTPγS S1P3/S1P1 (Method A)” value is on record as 3,500. The compound further gave an IC50 in experiment [4] of 0.32 nM.

For `Cc1cc(-c2noc(-c3onc(-c4ccccc4)c3C(F)(F)F)n2)ccc1CN1CC(C(=O)O)C1` [Example 22, 1-(2-methyl-4-(5-(3-phenyl-4-(trifluoromethyl)isoxazol-5-yl)-1,2,4-oxadiazol-3-yl)benzyl)azetidine-3-carboxylic acid], in experiment [2], the EC50 amounted to 1600 nM. In experiment [3], the 50% effective concentration (EC50) was found to be 0.52 nM and the “GTPγS S1P3/S1P1 (Method A)” value was 3,000. The compound also yielded a half-maximal inhibitory concentration (IC50) in experiment [4] of 0.55 nM.

As to `O=C(O)C1CN(Cc2ccc(-c3noc(-c4onc(-c5ccccc5)c4C(F)(F)F)n3)c(Cl)c2)C1` [Example 23, 1-(3-chloro-4-(5-(3-phenyl-4-(trifluoromethyl)isoxazol-5-yl)-1,2,4-oxadiazol-3-yl)benzyl)azetidine-3-carboxylic acid], the figures for the concentration giving a half-maximal response (EC50) in experiment [2] and in experiment [3] were 8300 nM and 1.9 nM, respectively. In addition, in experiment [3], the “GTPγS S1P3/S1P1 (Method A)” value is 4,400. The compound further displayed an IC50 in experiment [4] of 0.26 nM.

On to `O=C(O)C1CN(Cc2ccc(-c3noc(-c4onc(-c5ccccc5)c4C(F)(F)F)n3)c(C(F)(F)F)c2)C1` [Example 24, 1-(4-(5-(3-phenyl-4-(trifluoromethyl)isoxazol-5-yl)-1,2,4-oxadiazol-3-yl)-3-(trifluoromethyl)benzyl)azetidine-3-carboxylic acid], for which, in experiment [2], the EC50 is 31000 nM. Also, in experiment [3], the concentration for a half-maximal effect (EC50) amounted to 6.4 nM and the “GTPγS S1P3/S1P1 (Method A)” value is listed as 4,900. For the same compound, the IC50 in experiment [4] is 1.56 nM.

Consider `O=C(O)C1CN(Cc2ccc(-c3noc(-c4noc(-c5ccccc5)c4-c4ccccc4)n3)c(C(F)(F)F)c2)C1` [Example 25, 1-(4-(5-(4,5-Diphenylisoxazol-3-yl)-1,2,4-oxadiazol-3-yl)-3-(trifluoromethyl)benzyl)azetidine-3-carboxylic acid, 2,2,2-trifluoroacetic acid salt], for which the EC50 in experiment [2] is 3400 nM; in experiment [3], 9.2 nM. In addition, the “GTPγS S1P3/S1P1 (Method A)” value in experiment [3] was found to be 371. This compound also registered an IC50 in experiment [4] of 0.44 nM.
